Results on one compound are retold here after patent US20030150812A1, “Novel parallel throughput system” (priority 2001, published 2003).

In one assay the target is α3β2 nicotinic receptor (Homo sapiens, UniProt P17787+P32297). To be noted: Column A with α3β2, 24 cm, 50 nM injection, 10 mM Amm Acetate pH 7.4 and 1 nM dinitrobenzoic acid, 261 nm. On the procedure: (§1) A parallel screen was run using two separate columns containing the different nicotinic receptors α3β2 and […] in the separate columns. […] The mobile phase contained 10 mM Amm Acetate at pH 7.4 and 1 nM Dinitrobenzoic acid. The columns were 24 cm in length.
Chain of α3β2 nicotinic receptor (P32297 32-505): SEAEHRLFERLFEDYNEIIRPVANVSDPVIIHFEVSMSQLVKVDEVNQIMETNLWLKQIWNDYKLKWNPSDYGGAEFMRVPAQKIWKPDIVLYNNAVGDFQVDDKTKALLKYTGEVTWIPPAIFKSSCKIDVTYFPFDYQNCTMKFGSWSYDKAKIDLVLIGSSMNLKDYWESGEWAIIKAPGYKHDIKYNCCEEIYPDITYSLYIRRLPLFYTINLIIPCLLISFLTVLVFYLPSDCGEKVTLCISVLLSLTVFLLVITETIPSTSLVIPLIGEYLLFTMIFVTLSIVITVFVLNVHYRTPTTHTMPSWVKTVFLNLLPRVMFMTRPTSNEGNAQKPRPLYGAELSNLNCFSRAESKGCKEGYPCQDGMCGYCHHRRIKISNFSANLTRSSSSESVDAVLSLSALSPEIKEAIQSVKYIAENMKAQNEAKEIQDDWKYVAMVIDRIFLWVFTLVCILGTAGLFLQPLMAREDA
Chain of α3β2 nicotinic receptor (P17787 26-502): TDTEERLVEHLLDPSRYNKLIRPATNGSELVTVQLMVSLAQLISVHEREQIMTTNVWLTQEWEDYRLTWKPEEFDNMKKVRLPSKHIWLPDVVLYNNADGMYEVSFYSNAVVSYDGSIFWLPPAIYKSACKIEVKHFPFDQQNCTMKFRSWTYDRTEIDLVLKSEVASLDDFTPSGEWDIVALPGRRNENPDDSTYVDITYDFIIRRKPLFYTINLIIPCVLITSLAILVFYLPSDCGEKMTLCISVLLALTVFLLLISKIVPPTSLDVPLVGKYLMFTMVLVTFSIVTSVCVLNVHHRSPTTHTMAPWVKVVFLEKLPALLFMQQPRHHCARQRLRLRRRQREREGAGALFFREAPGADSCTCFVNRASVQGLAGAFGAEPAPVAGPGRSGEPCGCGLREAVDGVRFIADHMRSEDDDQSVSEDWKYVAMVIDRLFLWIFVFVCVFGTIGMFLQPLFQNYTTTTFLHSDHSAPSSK

For another assay, the target named is α3β4 nicotinic receptor (Homo sapiens, UniProt P30926+P32297). Particulars: Column B with α3β4, 24 cm, 50 nM injection, 10 mM Amm Acetate pH 7.4 and 1 nM dinitrobenzoic acid, 261 nm. As for the experimental part:
as §1

Chain of α3β4 nicotinic receptor (P32297 32-505): as the sequence (P32297 32-505) above
Chain of α3β4 nicotinic receptor (P30926 22-498): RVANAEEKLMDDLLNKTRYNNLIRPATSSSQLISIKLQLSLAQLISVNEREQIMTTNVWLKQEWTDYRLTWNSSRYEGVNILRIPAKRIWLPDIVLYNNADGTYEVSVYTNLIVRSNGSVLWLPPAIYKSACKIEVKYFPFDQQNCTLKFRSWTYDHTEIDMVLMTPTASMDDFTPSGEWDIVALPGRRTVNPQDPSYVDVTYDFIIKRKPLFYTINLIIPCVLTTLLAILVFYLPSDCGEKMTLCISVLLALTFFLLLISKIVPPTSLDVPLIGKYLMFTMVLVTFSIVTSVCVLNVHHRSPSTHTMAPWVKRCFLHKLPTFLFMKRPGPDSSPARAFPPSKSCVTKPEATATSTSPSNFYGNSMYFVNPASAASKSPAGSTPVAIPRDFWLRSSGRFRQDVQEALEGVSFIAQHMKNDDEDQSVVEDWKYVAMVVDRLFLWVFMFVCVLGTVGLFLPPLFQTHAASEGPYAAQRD

In the case of `CN1CCCC1c1cccnc1` (centres unmarked) [nicotine], the “time on receptor column” value at α3β2 nicotinic receptor was 2.25 min; on α3β4 nicotinic receptor, 0.98 min.
